Data: US8415469B2, “Compounds and methods for kinase modulation, and indications therefor” (Plexxikon Inc., priority 2005, dated 2013)

How the values were obtained:
Assay type in all cases: biochemical
Flt4 = target: T1, Flt4 (Homo sapiens, UniProt P35916); experiment: AlphaScreen kinase assay, Flt4; conditions: read-out: IC50, activity toward kinase Flt4
T1 construct: purchased ProQinase GmbH (Freiburg, Germany)
Description: AlphaScreen assay was used to screen additional kinases. The assay is similarly dependent on the phosphorylation of a peptide substrate. In this assay, an antibody that recognizes phosphorylated substrate is bound to an acceptor bead. The peptide substrate is attached to biotin, which binds to a donor head that contains streptavidin. Thus phosphorylated substrate is bound by antibody and streptavidin, bringing the donor and acceptor heads into close proximity when kinase is not inhibited. The donor produces singlet oxygen which results in emission from the acceptor when they are in close proximity. Conversely, when kinase is inhibited, the donor and acceptor beads are not associated and the emission from the acceptor is reduced.
AlphaScreen assays were done using compounds dissolved in DMSO to a concentration of 20 mM. The compounds were diluted accordingly to the desired final concentrations in each sample well, using 1:3 serial dilution for a total of 8 concentration points.

Kit = target: T2, Kit (Homo sapiens, UniProt P10721); experiment: AlphaScreen kinase assay, Kit; conditions: read-out: IC50, activity toward kinase Kit
T2 construct: P1332.N6 BI PTP KIT M552-K948-X COD; His6 (N); made in house; host or cells: E. coli (PTP1B co-expressed)
T2 sequence (P10721 with tags, fused parts or gaps): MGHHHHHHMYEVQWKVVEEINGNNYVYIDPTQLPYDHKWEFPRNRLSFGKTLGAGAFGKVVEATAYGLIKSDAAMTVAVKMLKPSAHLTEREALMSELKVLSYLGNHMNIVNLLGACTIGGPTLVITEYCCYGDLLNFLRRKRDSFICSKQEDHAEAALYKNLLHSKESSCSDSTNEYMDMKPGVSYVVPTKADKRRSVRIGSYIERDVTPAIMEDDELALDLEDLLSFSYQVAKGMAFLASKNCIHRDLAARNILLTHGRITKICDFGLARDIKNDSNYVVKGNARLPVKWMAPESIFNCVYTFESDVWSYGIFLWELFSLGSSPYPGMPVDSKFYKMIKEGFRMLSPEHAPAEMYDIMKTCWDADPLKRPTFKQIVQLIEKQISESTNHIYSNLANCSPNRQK

FGFR1 = target: T3, FGFR1 (Homo sapiens, UniProt P11362, C488A/C584S); experiment: AlphaScreen kinase assay, FGFR1; conditions: read-out: IC50, activity toward kinase FGFR
T3 construct: P1351.pET N6 BI-PTP FGFR A458-E765-X C488A, C584S; made in house; host or cells: E. coli (PTP1B co-expressed)
T3 sequence (P11362 458-765 C488A/C584S): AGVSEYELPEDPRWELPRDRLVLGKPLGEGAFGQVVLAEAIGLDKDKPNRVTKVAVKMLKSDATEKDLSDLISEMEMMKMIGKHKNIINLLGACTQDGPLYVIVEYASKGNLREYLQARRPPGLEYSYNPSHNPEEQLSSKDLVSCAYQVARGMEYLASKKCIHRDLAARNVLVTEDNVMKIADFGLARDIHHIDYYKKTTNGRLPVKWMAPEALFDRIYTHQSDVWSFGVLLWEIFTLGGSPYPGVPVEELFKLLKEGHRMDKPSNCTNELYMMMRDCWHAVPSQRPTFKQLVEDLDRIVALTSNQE

Flt1 = target: T4, Flt1 (Homo sapiens, UniProt P17948); experiment: AlphaScreen kinase assay, Flt1; conditions: read-out: IC50, activity toward kinase Flt1
T4 construct: P1826.pETN6 BI-PTP FLT1 M799-D1165-X WT; His6 (N); made in house; host or cells: E. coli (PTP1B co-expressed)
T4 sequence (P17948 with tags, fused parts or gaps): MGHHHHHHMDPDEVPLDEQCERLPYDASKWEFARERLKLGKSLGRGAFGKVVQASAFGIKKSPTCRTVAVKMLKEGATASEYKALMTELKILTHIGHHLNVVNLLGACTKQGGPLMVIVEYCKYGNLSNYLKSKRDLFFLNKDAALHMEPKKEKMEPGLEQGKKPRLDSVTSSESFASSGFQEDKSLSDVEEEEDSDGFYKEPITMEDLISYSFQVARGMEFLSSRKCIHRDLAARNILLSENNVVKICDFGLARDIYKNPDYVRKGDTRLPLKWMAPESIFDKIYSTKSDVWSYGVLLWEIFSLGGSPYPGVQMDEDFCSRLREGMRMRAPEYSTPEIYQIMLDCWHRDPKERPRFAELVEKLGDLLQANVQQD

Kdr = target: T5, Kdr (Homo sapiens, UniProt P35968); experiment: Z'-Lyte FRET kinase assay (Invitrogen), Kdr; conditions: read-out: IC50, activity toward kinase Kdr
T5 construct: purchased Invitrogen (assay run by Invitrogen)
T5 sequence (P35968 20-1356): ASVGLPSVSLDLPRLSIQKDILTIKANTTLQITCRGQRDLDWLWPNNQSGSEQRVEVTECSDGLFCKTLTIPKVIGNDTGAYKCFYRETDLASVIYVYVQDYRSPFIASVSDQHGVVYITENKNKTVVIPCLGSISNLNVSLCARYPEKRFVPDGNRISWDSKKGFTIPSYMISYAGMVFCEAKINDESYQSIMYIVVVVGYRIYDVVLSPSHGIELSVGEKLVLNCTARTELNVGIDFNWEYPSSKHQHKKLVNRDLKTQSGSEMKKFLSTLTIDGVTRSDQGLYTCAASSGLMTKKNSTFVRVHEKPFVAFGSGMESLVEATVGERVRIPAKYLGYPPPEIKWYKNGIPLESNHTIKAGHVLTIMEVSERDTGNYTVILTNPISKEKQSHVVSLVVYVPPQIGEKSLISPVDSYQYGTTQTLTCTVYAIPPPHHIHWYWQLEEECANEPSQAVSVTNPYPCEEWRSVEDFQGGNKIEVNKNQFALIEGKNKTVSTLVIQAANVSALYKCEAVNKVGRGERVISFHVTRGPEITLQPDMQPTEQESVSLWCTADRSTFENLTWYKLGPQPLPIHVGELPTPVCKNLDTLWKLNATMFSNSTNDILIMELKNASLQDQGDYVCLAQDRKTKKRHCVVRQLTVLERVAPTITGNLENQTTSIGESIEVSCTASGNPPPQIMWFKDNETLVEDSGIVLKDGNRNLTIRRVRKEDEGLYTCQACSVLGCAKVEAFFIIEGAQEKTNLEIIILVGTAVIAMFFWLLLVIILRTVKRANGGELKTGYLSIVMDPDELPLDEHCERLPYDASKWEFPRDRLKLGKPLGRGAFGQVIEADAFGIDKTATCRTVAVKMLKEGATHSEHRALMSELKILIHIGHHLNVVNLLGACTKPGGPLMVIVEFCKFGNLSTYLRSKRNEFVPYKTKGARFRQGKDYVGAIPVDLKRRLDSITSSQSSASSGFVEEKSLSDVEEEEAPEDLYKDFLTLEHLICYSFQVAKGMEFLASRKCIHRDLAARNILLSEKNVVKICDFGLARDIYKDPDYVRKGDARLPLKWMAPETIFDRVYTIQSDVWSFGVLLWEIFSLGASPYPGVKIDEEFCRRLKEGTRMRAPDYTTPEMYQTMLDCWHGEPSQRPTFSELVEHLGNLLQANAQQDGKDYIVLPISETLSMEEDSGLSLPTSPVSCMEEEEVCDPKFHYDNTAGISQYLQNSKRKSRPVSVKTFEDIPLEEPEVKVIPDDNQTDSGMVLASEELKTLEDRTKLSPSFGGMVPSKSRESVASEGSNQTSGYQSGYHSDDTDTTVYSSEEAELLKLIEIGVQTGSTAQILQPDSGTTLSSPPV

Ret = target: T6, Ret (Homo sapiens, UniProt P07949); experiment: AlphaScreen kinase assay, Ret; conditions: read-out: IC50, activity toward kinase Ret
T6 construct: P1378.pET-SF BI-PTP RET H661-R1012 HIS; made in house
T6 sequence (P07949 with tags, fused parts or gaps): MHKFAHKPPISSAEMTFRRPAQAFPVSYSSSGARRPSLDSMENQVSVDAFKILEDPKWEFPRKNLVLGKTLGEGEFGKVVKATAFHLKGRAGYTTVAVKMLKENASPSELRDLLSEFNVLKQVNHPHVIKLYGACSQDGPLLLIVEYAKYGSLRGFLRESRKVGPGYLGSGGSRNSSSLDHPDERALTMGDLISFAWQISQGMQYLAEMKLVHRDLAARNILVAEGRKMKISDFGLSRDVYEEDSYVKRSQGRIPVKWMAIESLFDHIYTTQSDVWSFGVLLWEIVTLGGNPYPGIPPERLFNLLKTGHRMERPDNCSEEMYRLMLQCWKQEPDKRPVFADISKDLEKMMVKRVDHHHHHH

B-Raf V600E = target: T7, B-Raf V600E (Homo sapiens, UniProt P15056, V600E); experiment: AlphaScreen kinase assay, B-Raf V600E; conditions: read-out: IC50, activity toward kinase B-Raf V600E
T7 construct: P4254. pFastBacBD-CDC37 BRAF D437-K722-X, V600E; His6 with pFastBac HT leader (TEV site) (N); made in house; host or cells: Sf9 (baculovirus; chaperone CDC37 co-expressed)
T7 sequence (P15056 with tags, fused parts or gaps V600E): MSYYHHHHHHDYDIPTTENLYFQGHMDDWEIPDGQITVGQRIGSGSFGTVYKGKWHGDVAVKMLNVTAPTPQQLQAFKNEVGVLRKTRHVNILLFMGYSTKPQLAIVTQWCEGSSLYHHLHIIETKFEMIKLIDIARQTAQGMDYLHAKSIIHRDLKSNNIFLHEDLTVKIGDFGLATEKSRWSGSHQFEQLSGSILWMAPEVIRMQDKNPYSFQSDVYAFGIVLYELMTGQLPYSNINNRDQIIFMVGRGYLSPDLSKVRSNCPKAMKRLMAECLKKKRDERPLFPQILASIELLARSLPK

Jnk3 = target: T8, Jnk3 (Homo sapiens, UniProt P53779); experiment: AlphaScreen kinase assay, Jnk3; conditions: read-out: IC50, activity toward kinase Jnk3
T8 construct: purchased Upstate Biotechnology
T8 sequence (P53779 whole entry): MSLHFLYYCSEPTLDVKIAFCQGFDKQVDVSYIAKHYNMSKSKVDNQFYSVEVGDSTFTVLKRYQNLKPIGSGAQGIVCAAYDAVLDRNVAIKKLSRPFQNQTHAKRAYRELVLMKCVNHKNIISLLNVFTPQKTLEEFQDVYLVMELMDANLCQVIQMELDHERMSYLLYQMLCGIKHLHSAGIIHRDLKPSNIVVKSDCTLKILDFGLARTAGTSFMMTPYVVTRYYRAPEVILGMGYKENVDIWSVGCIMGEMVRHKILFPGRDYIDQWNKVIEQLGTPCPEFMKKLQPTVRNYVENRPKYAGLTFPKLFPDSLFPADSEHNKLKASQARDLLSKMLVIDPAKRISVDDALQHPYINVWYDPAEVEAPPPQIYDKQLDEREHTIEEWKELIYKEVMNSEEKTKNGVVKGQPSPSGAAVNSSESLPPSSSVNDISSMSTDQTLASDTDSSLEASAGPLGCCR

Stk6 = target: T9, Stk6 (Homo sapiens, UniProt O14965); experiment: Z'-Lyte FRET kinase assay (Invitrogen), Stk6; conditions: read-out: IC50, activity toward kinase Stk6
T9 construct: purchased Invitrogen (Carlsbad, Calif.), screening service
T9 sequence (O14965 1-403): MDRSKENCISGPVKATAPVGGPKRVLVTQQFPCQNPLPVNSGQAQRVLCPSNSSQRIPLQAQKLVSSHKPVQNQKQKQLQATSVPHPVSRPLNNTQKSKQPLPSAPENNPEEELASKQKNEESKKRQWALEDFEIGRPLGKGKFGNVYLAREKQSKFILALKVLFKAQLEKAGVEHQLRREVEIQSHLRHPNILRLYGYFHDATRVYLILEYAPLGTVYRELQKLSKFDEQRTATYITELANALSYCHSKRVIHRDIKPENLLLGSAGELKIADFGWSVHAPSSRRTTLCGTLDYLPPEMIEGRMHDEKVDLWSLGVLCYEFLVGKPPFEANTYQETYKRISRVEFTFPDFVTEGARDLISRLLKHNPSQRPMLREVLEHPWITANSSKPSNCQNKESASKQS
Description: For example, direct radiometric, indirect FRET or AlphaScreen assays may be used to assess the level of phosphorylation of a substrate in the presence of test compounds in order to determine the inhibitory affect of the compound on the kinase. […] For these assays, compounds of the invention were screened by Invitrogen using Z′-Lyte™ kinase assay.
Briefly, the Invitrogen kinase assay involves use of a specific peptide substrate optimized for each kinase, containing a fluorophore at each end that make up the FRET pair. The peptide sensitivity to proteolytic cleavage depends on phosphorylation of the peptide. Non-phosphorylated peptide is cleaved by a protease while peptide phosphorylated by the kinase is not cleaved. Cleavage of the peptide disrupts the FRET between the donor (coumarin) and acceptor (fluorescein) fluorophores, resulting in an increase in the ratio of donor emission to acceptor emission. The emission ratio of coumarin to fluorescein is used to assess the reaction progress. […] Thus, the assay involves a kinase reaction in the presence of varying concentrations of a given compound, a development reaction with site specific protease, and detection of the fluorescent emission ratio of coumarin and fluorscein. […] Reaction conditions for each kinase are determined to provide optimal reaction times, incubation temperature, kinase and ATP concentrations. Test samples are made up in 1× kinase buffer (50 mM HEPES pH 7.5, 50 mM MgCl2, 5 mM EGTA, 0.05% BRIJ-35) and compound at desired concentration prepared in DMSO such that the final DMSO is 1%. […] All kinase except for MAP2K1 were at 10 μM ATP in the kinase reaction, while MAP2K1 was at 100 μM. Samples are mixed and the kinase reaction is incubated 1 hour at room temperature, after which 5 μl of development solution is added and mixed. After incubation for another 1 hour at room temperature, 5 μl of stop reagent is added to each sample and mixed. The fluorescence signals are measured to determine the emission ratio.

Btk = target: T10, Btk (Homo sapiens, UniProt Q06187); experiment: Z'-Lyte FRET kinase assay (Invitrogen), Btk; conditions: read-out: IC50, activity toward kinase Btk
T10 construct: purchased Invitrogen (assay run by Invitrogen)
T10 sequence (Q06187 whole entry): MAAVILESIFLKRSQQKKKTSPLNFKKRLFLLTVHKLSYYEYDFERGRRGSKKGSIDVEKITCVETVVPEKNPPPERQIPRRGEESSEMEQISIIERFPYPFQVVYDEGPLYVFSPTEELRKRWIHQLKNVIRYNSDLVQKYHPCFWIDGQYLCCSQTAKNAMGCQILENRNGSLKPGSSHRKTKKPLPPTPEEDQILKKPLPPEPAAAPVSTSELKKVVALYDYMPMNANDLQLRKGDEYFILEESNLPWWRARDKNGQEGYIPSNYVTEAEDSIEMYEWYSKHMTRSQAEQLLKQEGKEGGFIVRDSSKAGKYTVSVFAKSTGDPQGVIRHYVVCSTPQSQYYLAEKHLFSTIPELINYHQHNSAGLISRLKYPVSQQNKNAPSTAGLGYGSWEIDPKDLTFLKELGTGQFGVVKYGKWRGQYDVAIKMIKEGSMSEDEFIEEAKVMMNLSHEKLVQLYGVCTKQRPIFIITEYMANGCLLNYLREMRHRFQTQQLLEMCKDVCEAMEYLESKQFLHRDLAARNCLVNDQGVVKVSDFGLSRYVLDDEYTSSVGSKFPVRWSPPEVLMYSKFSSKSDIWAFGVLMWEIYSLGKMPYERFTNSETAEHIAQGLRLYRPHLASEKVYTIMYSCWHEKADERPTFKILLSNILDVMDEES

c-Raf-1 = target: T11, c-Raf-1 (Homo sapiens, UniProt P04049); experiment: AlphaScreen kinase assay, c-Raf-1; conditions: read-out: IC50, activity toward kinase c-Raf-1
T11 construct: purchased Upstate Biotechnology

Fms = target: T12, Fms (Homo sapiens, UniProt P07333); experiment: AlphaScreen kinase assay, Fms; conditions: read-out: IC50, activity toward kinase Fms
T12 construct: purchased Upstate Biotechnology
T12 sequence (P07333 20-972): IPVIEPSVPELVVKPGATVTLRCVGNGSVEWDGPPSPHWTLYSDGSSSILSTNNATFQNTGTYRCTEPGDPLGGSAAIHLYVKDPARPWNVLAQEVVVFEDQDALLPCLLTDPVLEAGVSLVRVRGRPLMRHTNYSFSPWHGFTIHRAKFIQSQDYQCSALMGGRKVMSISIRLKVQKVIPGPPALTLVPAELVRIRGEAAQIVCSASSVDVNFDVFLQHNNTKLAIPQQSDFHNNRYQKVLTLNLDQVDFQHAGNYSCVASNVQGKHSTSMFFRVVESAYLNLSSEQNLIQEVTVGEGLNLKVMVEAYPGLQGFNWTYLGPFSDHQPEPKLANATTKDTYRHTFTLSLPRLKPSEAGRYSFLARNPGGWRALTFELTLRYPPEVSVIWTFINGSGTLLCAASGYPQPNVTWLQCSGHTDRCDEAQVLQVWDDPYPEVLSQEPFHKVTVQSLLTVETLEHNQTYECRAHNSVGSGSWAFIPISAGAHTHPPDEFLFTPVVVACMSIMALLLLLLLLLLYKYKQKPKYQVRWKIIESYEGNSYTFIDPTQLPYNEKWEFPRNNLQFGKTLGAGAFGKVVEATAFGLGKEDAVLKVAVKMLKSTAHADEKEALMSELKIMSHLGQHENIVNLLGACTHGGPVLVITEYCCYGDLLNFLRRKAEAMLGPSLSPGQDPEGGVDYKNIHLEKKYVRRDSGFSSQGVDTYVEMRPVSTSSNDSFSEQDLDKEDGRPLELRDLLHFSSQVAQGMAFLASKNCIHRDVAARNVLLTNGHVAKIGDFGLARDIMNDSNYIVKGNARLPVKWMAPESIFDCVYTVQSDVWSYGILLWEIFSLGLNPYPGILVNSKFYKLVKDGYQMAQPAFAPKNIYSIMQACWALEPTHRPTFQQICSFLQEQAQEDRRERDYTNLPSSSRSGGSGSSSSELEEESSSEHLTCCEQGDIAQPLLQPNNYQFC

Fak = target: T13, Fak (Homo sapiens, UniProt Q05397); experiment: AlphaScreen kinase assay, Fak; conditions: read-out: IC50, activity toward kinase Fak
T13 construct: P1358.pFastBacHtb FAK S411-Q686-X; His6 with pFastBacHTb leader (TEV site) (N); made in house; host or cells: Sf9 (baculovirus)
T13 sequence (Q05397 411-686): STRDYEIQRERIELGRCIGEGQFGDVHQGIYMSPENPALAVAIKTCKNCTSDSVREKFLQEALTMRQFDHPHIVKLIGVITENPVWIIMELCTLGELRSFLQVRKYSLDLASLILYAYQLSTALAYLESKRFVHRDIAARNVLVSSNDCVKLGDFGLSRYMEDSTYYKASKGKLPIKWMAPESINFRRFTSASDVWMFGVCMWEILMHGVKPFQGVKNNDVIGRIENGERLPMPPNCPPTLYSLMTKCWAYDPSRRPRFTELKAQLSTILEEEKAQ

Yes = target: T14, Yes (Homo sapiens, UniProt P07947); experiment: Z'-Lyte FRET kinase assay (Invitrogen), Yes; conditions: read-out: IC50, activity toward kinase Yes
T14 construct: purchased Invitrogen (Carlsbad, Calif.), screening service
How it was run: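 Under a compound concentration curve, the kinase acted on a dual-labelled peptide at 2 μM with ATP at 10 μM for one hour at ambient temperature (buffer pH 7.5, 1% DMSO). Phosphorylation extent came from the emission ratio after protease development.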

Jnk1 = target: T15, Jnk1 (Homo sapiens, UniProt P45983); experiment: AlphaScreen kinase assay, Jnk1; conditions: read-out: IC50, activity toward kinase Jnk1
T15 construct: purchased Upstate Biotechnology
Description: AlphaScreen assays were done using compounds dissolved in DMSO to a concentration of 20 mM. The compounds were diluted accordingly to the desired final concentrations in each sample well, using 1:3 serial dilution for a total of 8 concentration points. Plates were prepared such that each kinase reaction is 20 μl in 1× kinase buffer, 5% DMSO and 10 μM ATP. After incubation of the kinase reaction for 1 hour at room temperature, 5 μl of donor beads in stop buffer (50 mM EDTA in 1× kinase buffer) was added, the sample was mixed and incubated for 20 minutes at room temperature before adding 5 μl of acceptor beads in stop buffer. The samples were incubated for 60 minutes at room temperature and the signal per well was read on AlphaQuest reader.

Jnk2 = target: T16, Jnk2 (Homo sapiens, UniProt P45984); experiment: AlphaScreen kinase assay, Jnk2; conditions: read-out: IC50, activity toward kinase Jnk2
T16 construct: purchased Roche Protein Expression Group (Indianapolis, IN)
How it was run: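 Eight concentrations per compound (1:3 serial dilution of 20 mM DMSO stock) were tested. Read-out: AlphaScreen signal from phospho-antibody acceptor and streptavidin donor beads bound to biotinylated peptide substrate, reduced on kinase inhibition.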

Src = target: T17, Src (Homo sapiens, UniProt P12931); experiment: AlphaScreen kinase assay, Src; conditions: read-out: IC50, activity toward kinase Src
T17 construct: P1144. pET-N6 BI-PTP SRC V86-L536-X; made in house

B-Raf = target: T18, B-Raf (Homo sapiens, UniProt P15056); experiment: AlphaScreen kinase assay, B-Raf; conditions: read-out: IC50, activity toward kinase B-Raf
T18 construct: purchased Upstate Biotechnology

Measured: IC50

COc1ccc(C(=O)c2c[nH]c3ncc(Br)cc23)cc1 [Compound P-0617]
≤ 10 µM: Flt4 | Kit

O=S(=O)(c1ccccc1)c1c[nH]c2ncccc12 [Compound P-0544]
≤ 10 µM: Flt4

Cc1cc(C(=O)c2c[nH]c3ncc(-c4cccc(C(N)=O)c4)cc23)nn1C [Compound P-0737]
≤ 10 µM: FGFR1 | Flt1 | Flt4 | Kdr | Kit | Ret

O=C(c1ccccc1)c1c[nH]c2nccc(-c3cc(F)cc(F)c3)c12 [Compound P-0452]
≤ 10 µM: FGFR1 | Flt4 | Ret

CS(=O)(=O)Nc1cccc(-c2cnc3[nH]cc(C(=O)c4ccc(Cl)cc4)c3c2)c1 [Compound P-0813]
≤ 10 µM: Flt4 | Kdr | Kit | Ret

O=C(c1ccc(F)cc1F)c1c[nH]c2nccc(-c3cc(F)cc(F)c3)c12 [Compound P-0352]
≤ 10 µM: B-Raf V600E | Flt4 | Kit | Ret

COc1cccc(C(=O)c2c[nH]c3ncc(-c4cccc(C(N)=O)c4)cc23)c1 [Compound P-0190]
≤ 10 µM: Flt4 | Jnk3 | Kdr | Kit | Ret

Nc1cccc(-c2cnc3[nH]cc(C(=O)c4cccc(Cl)c4Cl)c3c2)c1 [Compound P-0679]
≤ 10 µM: B-Raf V600E | FGFR1 | Flt1 | Flt4 | Kdr | Kit | Ret

COc1cccc(C(=O)c2c[nH]c3ncc(-c4cccs4)cc23)c1F [Compound P-0206]
≤ 10 µM: FGFR1 | Flt1 | Flt4 | Kdr | Kit | Ret | Stk6

O=C(c1ccc(Cl)cc1)c1c[nH]c2ncc(-c3cccnc3)cc12 [Compound P-0418]
≤ 10 µM: B-Raf V600E | Btk | c-Raf-1 | FGFR1 | Flt4 | Fms | Kdr | Kit | Ret

COc1cccc(C(=O)c2c[nH]c3ncc(-c4ccsc4)cc23)c1 [Compound P-0211]
≤ 10 µM: B-Raf V600E | Fak | FGFR1 | Flt1 | Flt4 | Fms | Jnk3 | Kit | Ret

O=C(c1ccccc1F)c1c[nH]c2nccc(-c3cc(F)cc(F)c3)c12 [Compound P-0097]
≤ 10 µM: B-Raf V600E | Btk | FGFR1 | Flt4 | Kdr | Kit | Ret | Yes

COc1cccc(C(=O)c2c[nH]c3ncc(-c4cccs4)cc23)c1 [Compound P-0204]
≤ 10 µM: FGFR1 | Flt4 | Jnk1 | Jnk2 | Jnk3 | Kdr | Kit | Ret

COc1cccc(Cc2c[nH]c3ncc(-c4cc5ccccc5[nH]4)cc23)c1 [Compound P-0335]
≤ 10 µM: FGFR1 | Flt4

CC(=O)Nc1cccc(-c2cnc3[nH]cc(C(=O)c4cc(C)on4)c3c2)c1 [Compound P-0632]
≤ 10 µM: FGFR1 | Flt1 | Flt4 | Jnk3 | Kdr | Kit | Ret

CC(=O)Nc1cccc(-c2cnc3[nH]cc(C(=O)c4ccccc4F)c3c2)c1 [Compound P-0668]
not listed: Stk6 | Btk | c-Raf-1 | Fms | Yes | Jnk2 | B-Raf
≤ 10 µM: all other assays above

COc1ccc(C(=O)c2c[nH]c3ncc(-c4cccs4)cc23)cc1 [Compound P-0771]
≤ 10 µM: B-Raf V600E | FGFR1 | Flt1 | Flt4 | Fms | Kdr | Kit | Ret | Src

COc1cccc(C(=O)c2c[nH]c3ncc(Br)cc23)c1F [Compound P-0265, (5-bromo-1H-pyrrolo[2,3-b]pyridin-3-yl)-(2-fluoro-3-methoxy-phenyl)-methanone]
≤ 10 µM: B-Raf | B-Raf V600E | c-Raf-1 | FGFR1 | Flt4 | Kit | Ret
